Where a name gives a salt, the structure may show the parent alone. One block for each compound: values may come before it.
How the values were obtained:
[1] = Particle size distribution (PSD), laser particle size analyzer, wet process; format: physicochemical; details: volume distribution, dispersion medium Isopar G
Method: The particle size distribution test in the present disclosure is acquired by the S3500 laser particle size analyzer of Microtrac. Microtrac S3500 is equipped with the SDC (Sample Delivery Controller). The test is carried out by wet process, and the dispersion medium is Isopar G The parameters are as follow: [table] Mv: Average particle size calculated by volume. D10: particle size which accounts for 10% of the particle size distribution (volume distribution). D50: particle size which accounts for 50% of the particle size distribution (volume distribution), also known as the median particle size. D90: particle size which accounts for 90% of the particle size distribution (volume distribution). PSD was performed on Form CS3 of the present disclosure and Form C of WO2016179415.

[2] = Mechanical stability: grinding in agate mortar, XRPD; format: physicochemical; details: grinding for 5 minutes in agate mortar
Method: A certain amount of Form C of WO2016179415, Form CS2 and Form CS3 samples were placed in an agate mortar. After grinding for 5 minutes, the obtained solid was collected for XRPD characterization. The results of Form C of WO2016179415, Form CS2 and Form CS3 were substantially as depicted in FIG. 16, FIG. 17 and FIG. 18, respectively.

[3] = Dynamic solubility (saturated solutions, HPLC); format: physicochemical; details: monohydrochloride
Method: High Performance Liquid Chromatography (HPLC) data in the present disclosure are collected from Agilent 1100 with diode array detector (DAD). The HPLC method parameters for solubility test in the present disclosure are as follows:
4. Injection Volume: 4 μL
5. Detection wavelength: 230 nm
6. Column Temperature: 40° C.
7. Diluent: 50% Acetonitrile
Form CS2 of the present disclosure and Form C of WO2016179415 were suspended into SGF (Simulated gastric fluids) and water to get saturated solutions. After equilibrated for 1 h and 4 h, concentrations of the saturated solutions were measured by HPLC.

[4] = stored at 80° C. for 7 days; cited from earlier work
[5] = Stability assessment of Form CS2 stored at 5° C. (XRPD and HPLC); format: physicochemical; details: for Purity: HPLC; for Solid Form: XRPD
Method: Form CS2 of the present disclosure was stored at 5° C. Samples were taken after 15 and 30 days to test XRPD and HPLC. The stability of From CS2 was mainly investigated. […] XRPD patterns overlay before and after storage for 30 days was substantially as depicted in FIG. 14.

[6] = Hygroscopicity test by dynamic vapor sorption (DVS), XRPD before and after; format: physicochemical; details: 40%-95%-0-95% RH cycle at 25° C.
Method: Dynamic Vapor Sorption (DVS) is measured via a SMS (Surface Measurement Systems Ltd.) intrinsic DVS. Typical Parameters for DVS test are as follows: Temperature: 25° C. Gas and flow rate: N2, 200 mL/min dm/dt: 0.002%/min RH range: 0% RH to 95% RH 6.2 mg of monohydrochloride Form CS2 was placed into dynamic vapor sorption (DVS) instrument, and then went through a 40%-95%-0-95% RH cycle at 25° C. The DVS plot was substantially as depicted in FIG. 10. The XRPD patterns overlay of solids before and after DVS test was substantially as depicted in FIG. 11 (Top: XRPD pattern before DVS; Bottom: XRPD pattern after DVS). […] 7.9 mg of dihydrochloride Form CS3 was placed into dynamic vapor sorption (DVS) instrument, and then went through a 40%-95%-0-95% RH cycle at 25° C. The DVS plot was substantially as depicted in FIG. 12. The XRPD patterns overlay of solids before and after DVS test was substantially as depicted in FIG. 13 (Top: XRPD pattern before DVS; Bottom: XRPD pattern after DVS).

[7] = Stability assessment of Form CS3 stored at 25° C./60% RH; format: physicochemical
Method: Form CS3 of the present disclosure was stored at 25° C./60% RH for 90 days. Samples were taken after 15, 30 and 90 days to investigate the stability of From CS3. […] XRPD patterns overlay before and after storage for 90 days was substantially as depicted in FIG. 15.

D(10) ([1]; monohydrochloride): 2.35 μm
D(50) ([1]; monohydrochloride): 18.26 μm
D(90) ([1]; monohydrochloride): 118.8 μm
Crystalline form after grinding ([2]; listed as Form C of WO2016179415, monohydrochloride): substantially changed to amorphous
Solubility ([3]; H2O, 1 h): 80 µg/mL
Solubility ([3]; H2O, 4 h): 600 µg/mL
Solubility ([3]; SGF, 1 h): 490 µg/mL
Solubility ([3]; SGF, 4 h): 560 µg/mL
Compound: FC(F)(F)c1ccc(CNc2ccc(Cc3c[nH]c4ncc(Cl)cc34)cn2)cn1 [Form C, PLX3397 monohydrochloride, reference compound]

Compound: FC(F)(F)c1ccc(CNc2ccc(Cc3c[nH]c4ncc(Cl)cc34)cn2)cn1 [Form A, PLX3397 monohydrochloride]
Form change on storage [4]: converted to Form C

Purity ([5]; 15 days): 99.45%
Solid Form ([5]; 15 days): No form change
Purity ([5]; 30 days): 99.44%
Solid Form ([5]; 30 days): No form change
Purity ([5]; Initial): 99.53%
Solid Form ([5]; Initial): No form change
Form change after DVS test [6]: No form change
Solubility ([3]; H2O, 1 h): 2170 µg/mL
Solubility ([3]; H2O, 4 h): 1290 µg/mL
Solubility ([3]; SGF, 1 h): 1130 µg/mL
Solubility ([3]; SGF, 4 h): 1280 µg/mL
Compound: FC(F)(F)c1ccc(CNc2ccc(Cc3c[nH]c4ncc(Cl)cc34)cn2)cn1 [Form CS2, PLX3397 monohydrochloride]
Crystalline form after grinding ([2]; monohydrochloride): crystallinity of Form CS2 and Form CS3 decreased but the crystalline forms remained unchanged

D(10) ([1]; dihydrochloride): 6.55 μm
D(50) ([1]; dihydrochloride): 47.85 μm
D(90) ([1]; dihydrochloride): 194.3 μm
Purity ([7]; 15 days): 99.60%
Solid Form ([7]; 15 days): No form change
Purity ([7]; 30 days): 99.64%
Solid Form ([7]; 30 days): No form change
Purity ([7]; 90 days): 99.50%
Solid Form ([7]; 90 days): No form change
Purity ([7]; Initial): 99.51%
Solid Form ([7]; Initial): No form change
Form change after DVS test [6]: No form change
Compound: FC(F)(F)c1ccc(CNc2ccc(Cc3c[nH]c4ncc(Cl)cc34)cn2)cn1 [Form CS3, PLX3397 dihydrochloride]
Crystalline form after grinding ([2]; dihydrochloride): crystallinity of Form CS2 and Form CS3 decreased but the crystalline forms remained unchanged
